Experiment [1] is described as follows: Antiinflammatory activity in NMRI mouse macrophages assessed as inhibition of A23187-induced LTC4 release at 100 uM by Ellman's method relative to control. The format is functional. The settings on record: Macrophage. Background: DTNB colorimetry detects thiols as they appear.
Experiment [2] is described as follows: Antiinflammatory activity in NMRI mouse macrophages assessed as inhibition of A23187-induced LTC4 release by Ellman's method. Type of experiment: functional, cell-based. The settings on record: macrophage.
Experiment [3] in a line: Antiinflammatory activity in NMRI mouse macrophages assessed as inhibition of A23187-induced LTC4 release at 25 uM by Ellman's method relative to control. Type of experiment: functional. Particulars: Macrophage.
Experiment [4] can be described thus: Antiinflammatory activity in NMRI mouse macrophages assessed as inhibition of A23187-induced PGE2 release by Ellman's method. Type of experiment: functional, cell-based. The settings on record: macrophage.
A short description of experiment [5]: Antiinflammatory activity in NMRI mouse macrophages assessed as inhibition of A23187-induced PGE2 release at 100 uM by Ellman's method relative to control. The format is functional. The settings on record: Macrophage.

Six compounds from ChEMBL document CHEMBL1158288, “Antiinflammatory activity of coumarins from Santolina oblongifolia” (J Nat Prod, 1996) can be followed below.

Molecules are shown by their SMILES.

For `CC(Cc1ccc(O)c(O)c1)C(C)Cc1ccc(O)c(O)c1` (configuration not stated) [NORDIHYDROGUAIARETIC ACID], the inhibition (commonly the relative decrease from the control value, in per cent) at 100 µM in experiment [1] was determined as 78.7%. In experiment [2], the IC50 worked out at 6 µmol.

Turning to `COc1cc2ccc(=O)oc2cc1O[C@@H]1O[C@H](CO)[C@@H](O)[C@H](O)[C@H]1O` [SCOPOLIN], the inhibition at 25 µM in experiment [3] stood at 55%. In addition, the IC50 in experiment [4] was determined as 77 µmol. In experiment [5], the inhibition at 100 µM amounted to 75.7%.

Turning to `COc1ccc2ccc(=O)oc2c1` [HERNIARIN], in experiment [3], the inhibition at 25 µM was 2.94%. Besides, the IC50 in experiment [4] worked out at 84 µmol. Besides, the inhibition at 100 µM in experiment [5] is 65.7%.

For `COc1cc2ccc(=O)oc2cc1O` [SCOPOLETIN], the inhibition at 25 µM in experiment [3] came out at 8.8%. In experiment [4], the IC50 stood at 5 µmol. Also, the inhibition at 100 µM in experiment [5] is 77.4%.

As to `O=c1ccc2cc(O)c(O)cc2o1` [ESCULETIN], the inhibition at 25 µM in experiment [3] is 71.2%. Besides, the IC50 in experiment [4] was 11 µmol; in experiment [2] it was 18 µmol. Moreover, the inhibition at 100 µM in experiment [5] stood at 71.7%.

Consider `COc1ccc2c(c1)c(CC(=O)O)c(C)n2C(=O)c1ccc(Cl)cc1` [INDOMETHACIN], for which the IC50 in experiment [4] worked out at 22 µmol. In experiment [5], the inhibition at 100 µM worked out at 78.1%.
